# Measured values as given in patent US8778939B2, “Compounds” (Glaxo Group Limited, priority 2009, dated 2014).
# Columns and labels:
# Type in all cases: biochemical
# [1] = biological target: T1, 6His-Tev-LRRK2 (1326-2527) (Homo sapiens, UniProt Q5S007); experiment: LRRK2 peptide substrate assay; details: Biotin-LRRKtide peptide substrate, ATP at Km
# T1 construct: A LRRK2 cDNA encoding residues 1326-2527 was received from Dundee University; made in house; host or cells: Spodoptera frugiperda (Sf9) insect cells, baculovirus
# T1 sequence (Q5S007 1326-2527): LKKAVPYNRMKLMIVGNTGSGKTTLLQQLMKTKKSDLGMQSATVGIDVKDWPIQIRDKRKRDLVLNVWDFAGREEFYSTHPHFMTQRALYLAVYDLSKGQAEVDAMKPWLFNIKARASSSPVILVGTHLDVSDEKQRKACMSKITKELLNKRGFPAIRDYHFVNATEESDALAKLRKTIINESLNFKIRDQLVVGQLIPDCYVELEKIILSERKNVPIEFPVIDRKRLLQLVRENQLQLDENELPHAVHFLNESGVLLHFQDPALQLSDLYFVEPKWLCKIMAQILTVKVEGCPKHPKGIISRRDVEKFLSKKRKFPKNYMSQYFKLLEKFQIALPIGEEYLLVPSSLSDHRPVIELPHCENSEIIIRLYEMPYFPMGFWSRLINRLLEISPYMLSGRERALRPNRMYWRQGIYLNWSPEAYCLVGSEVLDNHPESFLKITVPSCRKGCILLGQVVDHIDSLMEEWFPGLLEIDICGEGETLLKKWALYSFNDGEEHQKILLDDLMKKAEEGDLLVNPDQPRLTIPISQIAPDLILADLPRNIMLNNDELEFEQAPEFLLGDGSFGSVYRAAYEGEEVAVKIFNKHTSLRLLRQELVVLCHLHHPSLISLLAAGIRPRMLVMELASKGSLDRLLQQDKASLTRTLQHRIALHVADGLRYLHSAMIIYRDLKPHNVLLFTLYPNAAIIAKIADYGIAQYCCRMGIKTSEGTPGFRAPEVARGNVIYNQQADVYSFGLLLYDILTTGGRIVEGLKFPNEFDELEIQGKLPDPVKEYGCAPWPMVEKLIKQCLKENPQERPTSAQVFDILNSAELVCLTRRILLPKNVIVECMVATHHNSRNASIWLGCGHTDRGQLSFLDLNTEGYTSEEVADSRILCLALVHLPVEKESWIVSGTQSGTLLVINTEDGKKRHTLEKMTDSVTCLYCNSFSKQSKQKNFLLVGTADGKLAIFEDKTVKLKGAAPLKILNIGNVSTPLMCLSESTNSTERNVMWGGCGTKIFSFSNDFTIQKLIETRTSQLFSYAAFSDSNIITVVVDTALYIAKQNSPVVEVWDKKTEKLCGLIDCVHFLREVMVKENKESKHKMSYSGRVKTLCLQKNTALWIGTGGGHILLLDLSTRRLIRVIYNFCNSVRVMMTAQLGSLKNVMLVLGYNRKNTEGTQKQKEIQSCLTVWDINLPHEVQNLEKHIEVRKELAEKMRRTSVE
# Outline: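 Recombinant 6His-Tev-LRRK2 (1326-2527), 80 nM in enzyme solution, in pH 7.2 Hepes/MgCl2 buffer with DTT; compounds in 1:4 serial dilution from 30 μM top final. Reaction 1-2 h at room temperature, stopped with EDTA; phospho-moesin (Thr558) antibody with Eu/APC TR-FRET detection after 2 h (ex 330, em 620/665 nm).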
# [2] = biological target: T1, 6His-Tev-LRRK2 (1326-2527); experiment: LRRK2 AlphaScreen protein substrate assay; details: GST-PS-Moesin (400-577) substrate, ATP at Km; read-out: pIC50 in the LRRK2 alphascreen protein substrate assay (converted)
# Description: a) 100 nl of a 1:4 serial dilution of test compound with a top final assay concentration of 30 μM is added to certain wells in a low volume 384 well black plate. 100 nl of DMSO is used in certain wells as controls.
# b) 3 μl enzyme solution (80 nM purified recombinant 6His-Tev-LRRK2 (1326-2527) in assay buffer: 50 mM Hepes (pH 7.2), 10 mM MgCl2, 150 mM NaCl, 5% glycerol, 0.0025% triton X-100 and 1 mM DTT) is added to certain wells.
# Plates are then incubated for a further 1-2 hours at room temperature (incubation time varies depending upon rate and linearity of reaction with differing enzyme batches).
# d) 6 μl detection solution (1:250 dilution of AlphaLisa Protein A Acceptor beads (PerkinElmer), 1:64 dilution of AlphaLisa Gluthathione Donor beads (PerkinElmer) and 1:600 dilution (dilution determined on a batch to batch basis) of Phospho-Ezrin (Thr567)/Radixin (Thr564)/Moesin (Thr558) Polyclonal Antibody (New England Biolabs) in a buffer: 50 mM Hepes (pH 7.5), 250 mM NaCl, 60 mM EDTA, 1% PEG and 0.01% Brij 35) is added to each well. Plates are then incubated for a further 2 hours at room temperature in the dark before reading on an EnVision™ plate reader with AlphaScreen HTS turbo option module and AlphaScreen settings. Data is analysed using ActivityBase software (IDBS).
# [3] = biological target: T1, 6His-Tev-LRRK2 (1326-2527); experiment: LRRK2 AlphaScreen desensitised protein substrate assay
# Outline: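 Purified 6His-Tev-LRRK2 (1326-2527), 80 nM in enzyme solution, in pH 7.2 Hepes buffer with MgCl2 and DTT; compound 1:4 dilutions, top final 30 μM. ATP 2 mM in substrate solution, 20 min at room temperature. Phospho-ERM (Thr567/564/558) detected by AlphaScreen.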
# [4] = read-out: pIC50 in the LRRK2 peptide substrate assay (converted)
# [5] = excess of ATP present (2 mM ATP), read-out: pIC50 in the LRRK2 alphascreen desensitised protein substrate assay (converted)
# [6] = mean pIC50, read-out: LRRK2 peptide substrate assay (pIC50) (converted)
# [7] = mean pIC50, GST-PS-Moesin (400-577) substrate, 2 mM ATP (excess of ATP present), read-out: LRRK2 alphascreen desensitised protein substrate assay (pIC50) (converted)
"IC50 [1, 4] [µM]",IC50 [2] [µM],"IC50 [1, 6] [µM]",Compound,"IC50 [3, 5] [µM]","IC50 [3, 7] [µM]"
≤ 0.1,≤ 0.1,,"O=C(Nc1cccnc1)c1cc(Br)ccc1OCc1ccc(Cl)cc1 [Example 9, 5-Bromo-2-{[(4-chlorophenyl)methyl]oxy}-N-3-pyridinylbenzamide]",≤ 20,
,≤ 7.94,,"COc1ccccc1COc1ccc(Br)cc1C(=O)Nc1cccnc1 [Example 21, 5-Bromo-2-({[2-(methyloxy)phenyl]methyl}oxy)-N-3-pyridinylbenzamide]",≤ 20,
,≤ 7.94,,"COc1cccc(COc2ccc(Br)cc2C(=O)Nc2cccnc2)c1 [Example 18, 5-Bromo-2-({[3-(methyloxy)phenyl]methyl}oxy)-N-3-pyridinylbenzamide]",> 25.1,
,> 25.1,,"O=C(Nc1ccccn1)c1cc(Br)ccc1OCc1ccccc1 [Example 22, 5-Bromo-2-[(phenylmethyl)oxy]-N-2-pyridinylbenzamide]",> 25.1,
,≤ 7.94,,"O=C(O)Cc1cccc(NC(=O)c2cc(Cl)ccc2OCc2ccccc2)c1 [Example 25, {3-[({5-Chloro-2-[(phenylmethyl)oxy]phenyl}carbonyl)amino]phenyl}acetic acid]",,
,≤ 7.94,,"CNC(=O)c1cccc(NC(=O)c2cc(Br)ccc2OCc2ccccc2)c1 [Example 27, 5-Bromo-N-{3-[(methylamino)carbonyl]phenyl}-2-[(phenylmethyl)oxy]benzamide]",> 25.1,
≤ 0.1,,,"O=C(Nc1cccnc1F)c1cc(C(=O)N2CCOCC2)ccc1OCc1ccc(F)cc1F [Example 125, 2-{[(2,4-Difluorophenyl)methyl]oxy)-N-(2-fluoro-3-pyridinyl)-5-(4-morpholinylcarbonyl)benzamide]",≤ 20,
≤ 0.01,,,"COC(=O)NCc1ccc(OCc2ccc(F)cc2)c(C(=O)Nc2cccnc2)c1 [Example 118, Methyl ({4-{[(4-fluorophenyl)methyl]oxy}-3-[(3-pyridinylamino)carbonyl]phenyl}methyl)carbamate]",≤ 20,
≤ 0.1,,,"O=C(Nc1cccnc1)c1cc(C(=O)N2CCCC2)ccc1OCc1ccccc1 [Example 37, 2-[(Phenylmethyl)oxy]-N-3-pyridinyl-5-(1-pyrrolidinylcarbonyl)benzamide]",≤ 20,
≤ 0.1,,,"O=C(Nc1cccnc1)c1cc(Br)ccc1OCc1cccc(F)c1 [Example 57, 5-Bromo-2-{[(3-fluorophenyl)methyl]oxy}-N-3-pyridinyl benzamide]",> 25.1,
≤ 0.1,,,"COc1cccc(COc2ccc(-c3cnn(C)c3)cc2C(=O)Nc2cccnc2)c1 [Example 115, 2-({[3-(Methyloxy)phenyl]methyl}oxy)-5-(1-methyl-1H-pyrazol-4-yl)-N-3-pyridinylbenzamide]",≤ 20,
≤ 0.1,,,"O=C(Nc1ccnnc1)c1cc(CN2CCOCC2)ccc1OCc1ccc(F)cc1 [Example 119, 2-{[(4-Fluorophenyl)methyl]oxy}-5-(4-morpholinylmethyl)-N-4-pyridazinyl benzamide]",≤ 20,
≤ 0.01,,,"CN1CCC[C@H]1COc1ccc(OCc2ccccc2)c(C(=O)Nc2cccnc2)c1 [Example 47, 5-({[(2S)-1-Methyl-2-pyrrolidinyl]methyl}oxy)-2-[(phenylmethyl)oxy]-N-3-pyridinylbenzamide]",≤ 20,
≤ 0.1,,,"CNCCOc1ccc(OCc2ccccc2)c(C(=O)Nc2cccnc2)c1 [Example 48, 5-{[2-(Methylamino)ethyl]oxy}-2-[(phenylmethyl)oxy]-N-3-pyridinylbenzamide]",≤ 20,
≤ 0.1,,0.1,"O=C(Nc1cccnc1)c1cc(CCCN2CCOCC2)ccc1OCc1ccc(F)cc1 [Example 136, 2-{[(4-Fluorophenyl)methyl]oxy}-5-[3-(4-morpholinyl)propyl]-N-3-pyridinylbenzamide]",≤ 20,0.398
≤ 0.01,,,"O=C(Nc1cccnc1)c1cc(-c2cn[nH]c2)ccc1OCc1ccccc1 [Example 99, 2-[(Phenylmethyl)oxy]-5-(1H-pyrazol-4-yl)-N-3-pyridinylbenzamide]",≤ 20,
,≤ 7.94,,"CCc1cccc(NC(=O)c2cc(Br)ccc2OCc2ccccc2)c1 [Example 20, 5-Bromo-N-(3-ethylphenyl)-2-[(phenylmethyl)oxy]benzamide]",> 25.1,
,≤ 7.94,,"N#Cc1ccccc1COc1ccc(Br)cc1C(=O)Nc1cccnc1 [Example 23, 5-Bromo-2-{[(2-cyanophenyl)methyl]oxy}-N-3-pyridinylbenzamide]",≤ 20,
≤ 0.1,,0.0126,"Cn1cc(-c2ccc(OCc3ccc(F)cc3)c(C(=O)Nc3ccnnc3)c2)cn1 [Example 94, 2-{[(4-Fluorophenyl)methyl]oxy}-5-(1-methyl-1H-pyrazol-4-yl)-N-4-pyridazinylbenzamide]",≤ 20,0.1
≤ 0.1,,0.0631,"O=C(Nc1cccnc1)c1cc(C(=O)N2CCOCC2)ccc1OCc1ccc(F)cc1 [Example 127, 2-{[(4-Fluorophenyl)methyl]oxy}-5-(4-morpholinylcarbonyl)-N-3-pyridinylbenzamide]",≤ 20,10
≤ 0.1,,,"Cn1nccc1-c1ccc(OCc2ccc(F)cc2)c(C(=O)Nc2cccnc2)c1 [Example 95, 2-{[(4-Fluorophenyl)methyl]oxy}-5-(1-methyl-1H-pyrazol-5-yl)-N-3-pyridinylbenzamide]",≤ 20,
≤ 0.1,,0.0794,"O=C(Nc1cccnc1)c1cc(C(=O)N2CCOCC2)ccc1OCc1ccccc1 [Example 38, 5-(4-Morpholinylcarbonyl)-2-[(phenylmethyl)oxy]-N-3-pyridinylbenzamide]",≤ 20,7.94
≤ 0.01,,,"NCCOCCOc1ccc(OCc2ccccc2)c(C(=O)Nc2cccnc2)c1 [Example 49, 5-({2-[(2-Aminoethyl)oxy]ethyl}oxy)-2-[(phenylmethyl)oxy]-N-3-pyridinylbenzamide]",≤ 20,
